Source: BigSolDB 2.1

CC(=O)Nc1ccc(OC(=O)c2ccccc2OC(C)=O)cc1
solubility (mole fraction)
Conditions | 278.15 K | 283.15 K | 288.15 K | 293.15 K | 298.15 K | 303.15 K | 308.15 K | 313.15 K | 318.15 K | 323.15 K
in DMAc | 0.058 | 0.0623 | 0.0687 | 0.075 | 0.0814 | 0.0875 | 0.0954 | 0.103 | 0.112 | 0.12
in DMSO | – | – | – | 0.0385 | 0.0463 | 0.0544 | 0.0637 | 0.0743 | 0.0865 | 0.1
in methyl acetate | 0.0011 | 0.00138 | 0.00164 | 0.00199 | 0.00238 | 0.00289 | 0.00344 | 0.00412 | 0.00496 | 0.00602
in n-butyl acetate | 0.000482 | 0.000609 | 0.000727 | 0.000899 | 0.00106 | 0.0013 | 0.0016 | 0.00189 | 0.00229 | 0.00272
in n-pentyl acetate | 0.000309 | 0.000392 | 0.000509 | 0.000638 | 0.000794 | 0.000983 | 0.00121 | 0.00149 | 0.0018 | 0.00217
in n-propyl acetate | 0.00053 | 0.000653 | 0.000831 | 0.00104 | 0.00127 | 0.00154 | 0.00186 | 0.00221 | 0.00275 | 0.00324
